Legend:
S. aureus DSM 20231 [1] = test: fitness (endpoint OD595 vs no drug) (fraction); higher = more growth
In short: (§1)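 In 384-well plates at 37 °C, cultures began at OD595 0.01 in 30 µl, with 55 µl used for S. pneumoniae. OD595 readings every 30 min for 14 h were corrected by the first reading. Fitness divides the stationary-phase transition optical density by the robust mean of no-drug control wells. The result is capped at 1.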

S. aureus Newman [2] = test: as above
In short: as §1

S. pneumoniae D39V = test: Bliss interaction score (quartile over a dose matrix) (fitness difference); higher = more antagonism (negative = synergy)
In short: (§2)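 Growth was read as OD595 when cultures entered stationary phase, and each value was divided by the plate's robust no-drug mean and capped at 1. This normalised ratio is the fitness value, and fitness for each single drug came from the combination data. The Bliss score subtracts the expected fitness, taken as the product, from the observed fitness and is given as quartiles across technical, biological and donor/recipient replicates.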

S. aureus DSM 20231 [3] = test: as above
In short: as §2

B. subtilis 168 = test: as above
In short: as §2

S. aureus Newman [4] = test: as above
In short: as §2
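Wherever Bliss interaction score (quartile over a dose matrix) is given: first quartile when negative (synergy) and third quartile when positive (antagonism).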
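Wherever fitness (endpoint OD595 vs no drug) is given: OD595 on entry to stationary phase over no-drug wells; at most 1.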

Cc1cc(NS(=O)(=O)c2ccc(N)cc2)no1 [Sulfamethoxazol] + CCCCCCCCCC(=O)N[C@@H]1[C@H]([C@@H]([C@H](O[C@H]1OC2=C3C=C4C=C2OC5=C(C=C(C=C5)[C@H]([C@H]6C(=O)N[C@@H](C7=C(C(=CC(=C7)O)OC8[C@H]([C@H]([C@@H]([C@H](O8)CO)O)O)O)C9=C(C=CC(=C9)[C@H](C(=O)N6)NC(=O)[C@@H]4NC(=O)[C@@H]1C2=CC(=CC(=C2)OC2=C(C=CC(=C2)[C@H](C(=O)N[C@H](CC2=CC(=C(O3)C=C2)Cl)C(=O)N1)N)O)O)O)C(=O)O)O[C@H]1[C@@H]([C@H]([C@@H]([C@H](O1)CO)O)O)NC(=O)C)Cl)CO)O)O [Teicoplanin]
fitness, main component drawn
Details	first compound 1 µg/mL	first compound 2 µg/mL	first compound 4 µg/mL
S. aureus DSM 20231 [1], partner 0.1562 µg/mL	0.941	≥ 1	0.965
S. aureus DSM 20231 [1], partner 0.3125 µg/mL	≥ 1	≥ 1	0.991
S. aureus DSM 20231 [1], partner 0.625 µg/mL	≥ 1	≥ 1	≥ 1
S. aureus Newman [2], partner 0.1562 µg/mL	≥ 1	≥ 1	≥ 1
S. aureus Newman [2], partner 0.3125 µg/mL	≥ 1	0.995	0.984
S. aureus Newman [2], partner 0.625 µg/mL	≥ 1	≥ 1	0.862

fitness, S. aureus Newman [2], one replicate, main component drawn
Details	partner 0.1562 µg/mL	partner 0.3125 µg/mL	partner 0.62 µg/mL	partner 0.625 µg/mL	partner 1.24 µg/mL	partner 2.48 µg/mL
first compound 1 µg/mL	–	–	0.805	–	0.726	0.397
first compound 2 µg/mL	–	–	0.861	–	0.712	0.387
first compound 4 µg/mL	–	–	0.788	–	0.724	0.425
first compound 8 µg/mL	0.963	0.866	–	0.997	–	–

main component drawn
Details	Bliss interaction score
B. subtilis 168	0.0811
S. aureus DSM 20231 [3]	0.0373
S. aureus Newman [4]	0.0326
S. pneumoniae D39V	-0.0733

CC[C@H]1OC(=O)[C@H](C)[C@@H](O[C@H]2C[C@@](C)(OC)[C@@H](O)[C@H](C)O2)[C@H](C)[C@@H](O[C@@H]2O[C@H](C)C[C@H](N(C)C)[C@H]2O)[C@](C)(O)C[C@@H](C)CN(C)[C@H](C)[C@@H](O)[C@]1(C)O [Azithromycin] + CO/N=C(\C(=O)N[C@@H]1C(=O)N2C(C(=O)[O-])=C(C[N+]3(C)CCCC3)CS[C@H]12)c1csc(N)n1 [Cefepime]
fitness
Details	first compound 0.125 µg/mL	first compound 0.25 µg/mL	first compound 0.5 µg/mL
S. aureus DSM 20231 [1], partner 0.125 µg/mL	0.842	0.858	–
S. aureus DSM 20231 [1], partner 0.25 µg/mL	0.818	0.838	–
S. aureus DSM 20231 [1], partner 0.5 µg/mL	0.833	0.843	0.565
S. aureus Newman [2], partner 0.125 µg/mL	0.872	0.927	0.752
S. aureus Newman [2], partner 0.25 µg/mL	0.799	0.872	0.669
S. aureus Newman [2], partner 0.5 µg/mL	0.794	0.809	0.551

Details	Bliss interaction score
B. subtilis 168	0.0866
S. aureus DSM 20231 [3]	0.103
S. aureus Newman [4]	0.0874
S. pneumoniae D39V	0.112

Reference: the supplement of paper PMC10627819
